Patent US4087489A, “Insecticidal N-polychloroallylamido-thiophosphoric esters” (priority 1975, dated 1978)
Read-outs that look alike come from different tables or passages of the source.

How the values were obtained:
Musca domestica [1] = conditions: 0.5 γ/insect; literature compounds (Agricultural and Food Chemistry 11, 1963, p.237); cited from earlier work
[2] = Acute oral toxicity (DL 50) in the albino mouse; conditions: in vivo
[3] = test system: Leptinotarsa decemlineata; assay: Activity test on Leptinotarsa decemlineata larvae on potato plants; format: in vivo; conditions: for mortality at 1 %: read-out: % mort. Leptinot. Decemlin.
From the text: Potato plants grown in pots were infested with 4-day old larvae and subjected to besprinkling with an aqueous 0.1% dispersion of the product of Example 1.
(§1) In order to show how the compounds of the invention have different activities depending on the species at varying concentrations, the death-rate percentages on various infesting kinds of compounds of the invention at varying concentrations of active principle have been recorded in Table II.

Culex pipiens = assay: Activity test on Culex pipiens larvae in aqueous dispersion; format: in vivo
From the text: Into glasses containing an aqueous dispersion of the product of Example 1 and at a concentration of 0.005 parts per million, p.p.m.: there were introduced larvae of third and fourth age.
as §1

Musca domestica [4] = assay: Activity test on Musca domestica, topical application; format: in vivo
Description: Activity of "Musca domestica" by O-methyl-O-(2,4,5-trichlorophenyl)-phosphoroamidothioates with relationship to the weight of the alkyl group bound to the nitrogen atom (iso-C3 H7 = 1) in comparison with that of the compound of Example 1 of this invention (in a quantity of 0.5 γ/insect):
Adult 4-day flies were treated by topical application by means of a micro-syringe of 1 cubic millimeters (mm^3) of an acetone solution at 0.5 γ/ .mm^3 according to Example 1. […] (The death-rate of the flies treated with 1 .mm^3 of acetone under the same conditions was equal to 0).

Macrosiphum Euphorbiae = assay: Activity test on Macrosiphum euphorbiae (aphides) on potato plants; format: in vivo
From the text: Small potato plants, grown in pots, were infested with adult aphide females and, after a few hours, subjected to besprinkling with an aqueous dispersion of the product of Example 1, at a concentration of 0.1%. The percentual death-rate turned out to be 100% (on small untreated plants = 0).
as §1

Tetran. Urt. adults = assay: Activity on Tetran. Urt. adults (Table II); format: in vivo
From the text: as §1

Spodopt. Littoralis = assay: Activity on Spodopt. Littoralis (Table II); format: in vivo; conditions: 1 % a.p.
From the text: as §1

Tetran Urt. eggs = assay: Activity on Tetran Urt. eggs (Table II); format: in vivo
From the text: as §1

Pieris Brassicae = assay: Activity on Pieris Brassicae (Table II); format: in vivo; conditions: read-out: % mort. Pieris Brassicae
From the text: as §1

albino mouse = conditions: oral, comparison value; cited from earlier work

**Q.** For `COP(=S)(NC(C)C)Oc1ccc(Cl)cc1Cl` (stereo not drawn), which “Percentual death-rate on Musca domestica” value (Musca domestica [1]) is on record?
**A.** 100%

**Q.** Which “Percentual death-rate on Musca domestica” value (Musca domestica [1]) does the source give for `COP(=S)(NC(C)C)Oc1cc(Cl)c(Cl)cc1Cl` (stereo not drawn) here?
**A.** 100%

**Q.** For `COP(=S)(NCC(C)C)Oc1cc(Cl)c(Cl)cc1Cl` (stereo not drawn), which “Percentual death-rate on Musca domestica” value (Musca domestica [1]) is on record?
**A.** 92%

**Q.** Which “Percentual death-rate on Musca domestica” value (Musca domestica [1]) does the source give for `COP(=S)(NC(C)(C)C)Oc1cc(Cl)c(Cl)cc1Cl` (stereo not drawn) here?
**A.** 13%

**Q.** Which LD50 [2] does the source give for `CCOP(=S)(NCC=C(Cl)Cl)Oc1cc(Cl)c(Cl)cc1Cl` (stereo not drawn) [Example 1, O-ethyl-O-(2,4,5-trichlorophenyl)-N-(3,3-dichloro-allyl)amido-thiophosphate] here?
**A.** > 100 mg/kg

**Q.** And the mortality at 0.1 % ([3]; 4-day old larvae on potato plants, aqueous 0.1% dispersion, after 48 hrs, read-out: percentual death-rate of the larvae)?
**A.** 100%

**Q.** What about the mortality at 0.005 ppm (Culex pipiens; larvae of third and fourth age, 0.005 p.p.m., after 24 hours, read-out: death-rate) of the same compound?
**A.** 100%

**Q.** And the “Percentual death-rate on Musca domestica” value (Musca domestica [4]; 0.5 γ/insect, Table I)?
**A.** 100%

**Q.** What about the death-rate (Musca domestica [4]; adult 4-day flies, topical 1 mm^3 acetone solution at 0.5 γ/mm^3, after 24 hours) of the same compound?
**A.** 100%

**Q.** And the mortality at 0.1 % (Macrosiphum Euphorbiae; read-out: percentual death-rate)?
**A.** 100%

**Q.** With `CSc1ccc(OP(=S)(NCC=C(Cl)Cl)OC(C)C)cc1C` (stereo not drawn) [Example M7468] as the compound, how does the mortality at 1 % ([3]; 1 % a.p.) read?
**A.** 30%

**Q.** And the mortality at 0.02 µg/mL (Culex pipiens; 0,02 ppm a.p., read-out: % mort. Oulex Pipens)?
**A.** 30%

**Q.** What about the “% mort. Tetran. Urt. adults” value (Tetran. Urt. adults; 0,1 % a.p.) of the same compound?
**A.** 0%

**Q.** And the “% mort. Spodopt. Littoralis” value (Spodopt. Littoralis)?
**A.** 0%

**Q.** Which results are given for `COP(=S)(Oc1ccc(SC)c(C)c1)N(C)CC=C(Cl)Cl` (stereo not drawn) [Example M7469]?
**A.** mortality at 1 % [3]: 20%; % mort. Spodopt. Littoralis (Spodopt. Littoralis): 15%; % mort. Tetran Urt. eggs (Tetran Urt. eggs; 0,1 % a.p.): 24%; % mort. Tetran Urt. eggs (Tetran Urt. eggs; 1 % a.p.): 100%

**Q.** With `CCOP(=S)(NCC=C(Cl)Cl)Oc1ccc([N+](=O)[O-])c(C)c1` (stereo not drawn) [M 6986] as the compound, how does the mortality at 1 % ([3]; 1 % a.p.) read?
**A.** 40%

**Q.** And the mortality at 0.2 µg/mL (Culex pipiens; 0,2 ppm a.p., read-out: % mort. Oulex Pipens)?
**A.** 100%

**Q.** What about the mortality at 2 µg/mL (Culex pipiens; read-out: % mort. Oulex Pipens) of the same compound?
**A.** 100%

**Q.** And the “% mort. Tetran. Urt. adults” value (Tetran. Urt. adults; 1 % a.p.)?
**A.** 26%

**Q.** And the mortality at 1 % (Pieris Brassicae; 1 % a.p.)?
**A.** 100%

**Q.** And the “% mort. Spodopt. Littoralis” value (Spodopt. Littoralis)?
**A.** 5%

**Q.** What about the mortality at 1 % (Macrosiphum Euphorbiae; 1 % a.p., read-out: % mort. Macrosiphum Euphorbiae) of the same compound?
**A.** 100%

**Q.** And the “% mort. Tetran Urt. eggs” value (Tetran Urt. eggs; 1 % a.p.)?
**A.** 12%

**Q.** For `CC(C)OP(=S)(NCC=C(Cl)Cl)Oc1cc(Cl)c(Cl)cc1Cl` (stereo not drawn) [M 7147], which mortality at 1 % [3] is on record?
**A.** 75%

**Q.** What about the “% mort. Tetran. Urt. adults” value (Tetran. Urt. adults; 1 % a.p.) of the same compound?
**A.** 47%

**Q.** What about the mortality at 1 % (Pieris Brassicae) of the same compound?
**A.** 20%

**Q.** Which mortality at 1 % ([3]; 1 % a.p.) does the source give for `COP(=S)(NCC=C(Cl)Cl)Oc1cc(Cl)c(Cl)cc1Cl` (stereo not drawn) [M 7160] here?
**A.** 40%

**Q.** And the “% mort. Spodopt. Littoralis” value (Spodopt. Littoralis)?
**A.** 55%

**Q.** For `COP(=S)(NCC=C(Cl)Cl)Oc1ccc([N+](=O)[O-])c(C)c1` (stereo not drawn) [M 7415], which mortality at 1 % ([3]; 1 % a.p.) is on record?
**A.** 70%

**Q.** For `COP(=S)(NCC=C(Cl)Cl)Oc1ccc(SC)c(C)c1` (stereo not drawn) [M 7466], which “% mort. Spodopt. Littoralis” value (Spodopt. Littoralis) is on record?
**A.** 0%

**Q.** With `CCOP(=S)(NCC=C(Cl)Cl)Oc1ccc(SC)c(C)c1` (stereo not drawn) [M 7467] as the compound, how does the mortality at 1 % ([3]; 1 % a.p.) read?
**A.** 55%

**Q.** And the “% mort. Spodopt. Littoralis” value (Spodopt. Littoralis)?
**A.** 30%

**Q.** With `CCOP(=S)(Oc1ccc(SC)c(C)c1)N(C)CC=C(Cl)Cl` (stereo not drawn) [M 7470] as the compound, how does the “% mort. Tetran. Urt. adults” value (Tetran. Urt. adults; 0,01 % a.p.) read?
**A.** 4%

**Q.** What about the “% mort. Spodopt. Littoralis” value (Spodopt. Littoralis) of the same compound?
**A.** 25%

**Q.** With `CSc1ccc(OP(=S)(OC(C)C)N(C)CC=C(Cl)Cl)cc1C` (stereo not drawn) [M 7471] as the compound, how does the mortality at 1 % ([3]; 1 % a.p.) read?
**A.** 65%

**Q.** What about the “% mort. Tetran. Urt. adults” value (Tetran. Urt. adults; 1 % a.p.) of the same compound?
**A.** 57%

**Q.** What about the mortality at 0.1 % (Pieris Brassicae; 0,1 % a.p.) of the same compound?
**A.** 0%

**Q.** And the “% mort. Spodopt. Littoralis” value (Spodopt. Littoralis)?
**A.** 0%

**Q.** For `CCOP(=S)(OCC)Oc1ccc([N+](=O)[O-])cc1` [Parathion, O,O-diethyl-O-p-nitrophenyl-phosphorthioate], which “D.L. 50” value (albino mouse) is on record?
**A.** 14 mg/kg
